Earlier results on two molecules are cited in US8109913B2, “Coiled wire for the controlled release of drugs to the eye” (DSM IP Assets B.V., priority 2005, dated 2012).

SMILES strings stand for the structures.

The conditions of data set [1]: in vivo, device loaded with atropine.
The conditions of data set [2]: in vitro.

`CN1[C@@H]2CC[C@H]1C[C@@H](OC(=O)C(CO)c1ccccc1)C2` (some centres unmarked) [atropine]: the Mydriasis entry in data set [1] is reported as “mydriasis can be obtained”.

Turning to `N#Cc1c(N2C[C@@H]3CCCN[C@@H]3C2)c(F)cc2c(=O)c(C(=O)O)cn(C3CC3)c12` [pradofloxacin], the “Activity of the drug when released from the coating” value in data set [2] was “still active”.
